This note sets out measurements from US20050004126A1 (priority 2001, published 2005).

pIC50: −log10 of the molar value. Counter-ions that a name gives are not always drawn. Like-named read-outs stand apart in the source and are kept apart here. Where only a bound is given, the exact number is not on record here.

The target in test [1] is MMP-3CD (catalytic domain of stromelysin) (Homo sapiens, UniProt P08254). Description: Thiopeptolide hydrolysis assay, MMP-3.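 Also: inhibition of thiopeptolide substrate (100 µM) cleavage by the MMP-3 catalytic domain, detected with DTNB at pH 6.0 with CaCl2, hydrolysis compared against runs lacking inhibitor.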 Particulars: read-out: MMP03 IC50. In kind it is biochemical.
MMP-3CD (catalytic domain of stromelysin), sequence (P08254 100-272 limits assumed): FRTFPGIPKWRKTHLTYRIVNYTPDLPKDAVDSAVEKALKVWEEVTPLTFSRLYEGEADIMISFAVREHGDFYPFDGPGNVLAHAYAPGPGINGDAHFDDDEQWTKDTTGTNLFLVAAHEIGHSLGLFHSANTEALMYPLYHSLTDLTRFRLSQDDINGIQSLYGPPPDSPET
Test [2] concerns the target MMP-13CD (catalytic domain of collagenase 3) (Homo sapiens, UniProt P45452). Description: Thiopeptolide hydrolysis assay, MMP-13.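 Also: inhibition of enzymatic thiopeptolide substrate cleavage (100 µM) in pH 6.0 MES buffer with CaCl2 and DTNB, comparing hydrolysis with versus without inhibitor.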
Test [3] addresses T1, MMP-1FL (full-length interstitial collagenase) (Homo sapiens, UniProt P03956).
T1 sequence (P03956 100-469): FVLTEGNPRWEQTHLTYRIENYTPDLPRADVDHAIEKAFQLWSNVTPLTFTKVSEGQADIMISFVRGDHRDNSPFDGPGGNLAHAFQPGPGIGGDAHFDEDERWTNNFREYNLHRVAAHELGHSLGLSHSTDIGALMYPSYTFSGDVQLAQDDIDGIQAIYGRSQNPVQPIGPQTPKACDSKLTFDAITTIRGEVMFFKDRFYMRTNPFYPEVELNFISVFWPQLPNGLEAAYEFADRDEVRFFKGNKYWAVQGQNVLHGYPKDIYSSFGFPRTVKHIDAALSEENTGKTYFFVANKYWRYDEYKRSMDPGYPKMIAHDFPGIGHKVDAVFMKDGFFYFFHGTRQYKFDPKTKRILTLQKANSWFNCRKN
Description: Thiopeptolide hydrolysis assay, MMP-1. Particulars: read-out: MMP01 IC50. The format is biochemical.
Description: They measure the amount by which a test compound reduces the hydrolysis of a thiopeptolide substrate caused by a matrix metalloproteinase enzyme.
Thiopeptolide substrates show virtually no decomposition or hydrolysis in the absence of a matrix metalloproteinase enzyme. A typical thiopeptolide substrate commonly utilized for assays is Ac-Pro-Leu-Gly-thioester-Leu-Leu-Gly-OEt. A 100 μL assay mixture will contain 50 mM of 2-morpholinoethane sulfonic acid monohydrate (MES, pH 6.0) 10 mM CaCl2, 100 μM thiopeptolide substrate, and 1 mM 5,5′-dithio-bis-(2-nitro-benzoic acid) (DTNB). […] The change in absorbance at 405 nm is monitored on a Thermo Max microplate reader (moleucular Devices, Menlo Park, Calif.) at room temperature (22° C.). […] Assays are carried out with and without matrix metalloproteinase inhibitor compounds, and the amount of hydrolysis is compared for a determination of inhibitory activity of the test compounds.

For the compound `Cc1c(=O)n(Cc2ccccc2)c(=O)n2cc(C(=O)NCc3ccc(Cl)cc3)sc12`, the pIC50 – broadly, the negative decadic logarithm of the IC50, by convention in mol/L – in test [1] (Table 1b) is 4.64; in test [3] (Table 1b), below 4.52. Moreover, in test [2] (MMP13 IC50 (μM), Table 1b), inhibition was half-maximal at 0.0869 µM (IC50).

Regarding `COc1ccc(CNC(=O)c2cn3c(=O)n(Cc4ccc(C(=O)OCCN(C)C)cc4)c(=O)c(C)c3s2)cc1` [hydrochloride], the pIC50 in test [1] (Table 1b) was below 4.00; in test [3] (Table 1b), below 4.52. Moreover, half-maximal inhibition in test [2] (MMP13 IC50 (μM), Table 1b) (IC50) was put at 0.0455 µM.

Consider `COc1ccc(C(=O)OCc2ccncc2)cc1C(=O)OCc1ccncc1` [4-Methoxy-isophthalic acid dipyridin-4-ylmethyl ester], for which the pIC50 in test [1] (Table II) and in test [3] (Table II) was below 4.00 in each case. Also, the midpoint of inhibition in test [2] (MMP13 IC50 (nM), Table II), the IC50, lay at 0.255 µM.

Consider `COc1ccc(CNC(=O)c2cccc(C(=O)NCc3cccc(OC)c3)c2)cc1`, for which the pIC50 in test [1] (Table II) was 4.40; in test [3] (Table II) it was below 4.00. For the same compound, the IC50 (as a rule, the concentration needed to halve the response being measured) in test [2] (MMP13 IC50 (nM), Table II) is 0.415 µM.

As to `COc1ccc(C(=O)OCc2ccccc2)cc1C(=O)OCc1ccccc1` [4-Methoxy-isophthalic acid dibenzyl ester], the pIC50 in test [1] (Table II) and in test [3] (Table II) was below 4.00 throughout. Also, in test [2] (MMP13 IC50 (nM), Table II), the IC50 was 0.9 µM.

Consider `COc1cccc(CNC(=O)c2cccc(C(=O)OCc3ccc(C(=O)O)cc3)c2)c1`, for which the pIC50 in test [1] (Table II) and in test [3] (Table II) was below 4.00 throughout. For the same compound, 0.044 µM corresponded to half-maximal inhibition in test [2] (MMP13 IC50 (nM), Table II) (IC50).

`Nc1cc(C(=O)OCc2ccccc2)cc(C(=O)OCc2ccccc2)c1` [5-Amino-isophthalic acid dibenzyl ester]: the pIC50 was 4.14 in test [1] (Table II) and below 4.00 in test [3] (Table II). In addition, the IC50 in test [2] (MMP13 IC50 (nM), Table II) was 1.1 µM.

With `Cc1c(=O)n(Cc2ccc(C(=O)O)cc2)c(=O)n2cc(C(=O)NCc3ccc(F)cc3)sc12`, the figures for the pIC50 in test [1] (Table 1b) and in test [3] (Table 1b) were 4.17 and below 4.00, respectively. In test [2] (MMP13 IC50 (μM), Table 1b), this compound yielded an IC50 of 0.0022 µM.

For the compound `COC(=O)c1ccc(CNC(=O)c2cccc(C(=O)NCc3cccc(OC)c3)c2)cc1`, the pIC50 in test [1] (Table II) is 4.19; in test [3] (Table II) it was below 4.00. This compound yielded an IC50 in test [2] (MMP13 IC50 (nM), Table II) of 0.255 µM.

Consider `Cc1c(=O)n(Cc2ccc(C(=O)N3CCOCC3)cc2)c(=O)n2cc(C(=O)NCc3ccc(F)cc3)sc12`, for which the pIC50 in test [1] (Table 1b) and in test [3] (Table 1b) was below 4.52 throughout. In test [2] (MMP13 IC50 (μM), Table 1b), this compound showed an IC50 of 0.011 µM.

On to `Cc1c(=O)n(Cc2ccc(C(=O)OCCN(C)C)cc2)c(=O)n2cc(C(=O)NCc3ccncc3)sc12` [dihydrochloride], for which the pIC50 in test [1] (Table 1b) and in test [3] (Table 1b) was below 4.00 each time. Moreover, in test [2] (MMP13 IC50 (μM), Table 1b), inhibition was half-maximal at 0.235 µM (IC50).

For `Cc1c(=O)n(Cc2ccc(C(=O)OCCN(C)C)cc2)c(=O)n2cc(C(=O)NCc3ccc(F)cc3)sc12`, the pIC50 was below 4.52 in test [1] (Table 1b) and below 4.00 in test [3] (Table 1b). For the same compound, 0.094 µM corresponded to half-maximal inhibition in test [2] (MMP13 IC50 (μM), Table 1b) (IC50).

For the compound `Cc1c(=O)n(Cc2ccccc2)c(=O)n2cc(C(=O)NCc3ccc(F)cc3)sc12`, the results for the pIC50 in test [1] (Table 1b) and in test [3] (Table 1b) were below 4.00 and below 4.52, respectively. This compound also had an IC50 in test [2] (MMP13 IC50 (μM), Table 1b) of 0.0245 µM.

On to `COc1ccc(COC(=O)c2cccc(C(=O)OCc3ccc(OC)cc3)c2)cc1` [Isophthalic acid bis-(4-methoxy-benzyl) ester], for which the results for the pIC50 in test [1] (Table II) and in test [3] (Table II) were 4.29 and below 4.00, respectively. The compound further returned an IC50 in test [2] (MMP13 IC50 (nM), Table II) of 1.07 µM.

`Cc1nc(Cn2c(=O)c(C)c3sc(C(=O)NCc4ccc(F)cc4)cn3c2=O)cs1`: the figures for the pIC50 in test [1] (Table 1b) and in test [3] (Table 1b) were below 4.52 and below 4.00, respectively. Besides, the IC50 in test [2] (MMP13 IC50 (μM), Table 1b) turned out to be 0.77 µM.

With `COc1ccc(CNC(=O)c2cn3c(=O)n(Cc4ccccc4)c(=O)c(C=O)c3s2)cc1`, the pIC50 in test [1] (Table 1b) was 4.96; in test [3] (Table 1b), below 4.00. For the same compound, in test [2] (MMP13 IC50 (μM), Table 1b), the IC50 turned out to be 0.0224 µM.

As for `Cc1c(=O)n(Cc2ccc(Br)cc2)c(=O)n2cc(C(=O)NCc3ccncc3)sc12` [hydrochloride], the pIC50 in test [1] (Table 1b) and in test [3] (Table 1b) was below 4.52 throughout. The same compound came in with an IC50 in test [2] (MMP13 IC50 (μM), Table 1b) of 0.0365 µM.

In the case of `Cc1c(=O)n(Cc2ccccc2)c(=O)n2cc(C(=O)NCc3ccc(OC(F)(F)F)cc3)sc12`, the pIC50 was below 4.00 in test [1] (Table 1b) and below 4.52 in test [3] (Table 1b). For the same compound, in test [2] (MMP13 IC50 (μM), Table 1b), the IC50 worked out at 0.815 µM.

With `COC(=O)c1ccc(Cn2c(=O)c(C)c3sc(C(=O)NCc4ccc(F)cc4)cn3c2=O)cc1`, the negative-log IC50 (pIC50) in test [1] (Table 1b) was 4.77; in test [3] (Table 1b), below 4.00. Besides, 0.018 µM corresponded to half-maximal inhibition in test [2] (MMP13 IC50 (μM), Table 1b) (IC50).

`COc1ccc(C(=O)NCc2ccc3nsnc3c2)cc1C(=O)NCc1ccc2nsnc2c1`: the pIC50 in test [1] (Table II) was 4.68; in test [3] (Table II), 4.52. For the same compound, half-maximal inhibition in test [2] (MMP13 IC50 (nM), Table II) (IC50) was put at 0.155 µM.

As to `COc1ccc(C(=O)NCc2ccc(C)cc2)cc1C(=O)NCc1ccc(C)cc1` [4-Methoxy-N,N′-bis-(4-methyl-benzyl)-isophthalamide], the pIC50 in test [1] (Table II) and in test [3] (Table II) was below 4.00 each time. The compound also had an IC50 in test [2] (MMP13 IC50 (nM), Table II) of 7.25 µM.

Consider `O=C(NCc1ccccc1)c1cccc(C(=O)NCc2ccc3c(c2)OCO3)c1`, for which the pIC50 in test [1] (Table II) and in test [3] (Table II) was below 4.00 in each case. This compound also returned an IC50 in test [2] (MMP13 IC50 (nM), Table II) of 1.9 µM.

With `Cc1c(=O)n(Cc2nccs2)c(=O)n2cc(C(=O)NCc3ccc(F)cc3)sc12` [hydrochloride], the pIC50 is below 4.52 in test [1] (Table 1b) and below 4.00 in test [3] (Table 1b). Besides, the IC50 in test [2] (MMP13 IC50 (μM), Table 1b) stood at 0.53 µM.

For `COC(=O)c1ccc(Cn2c(=O)c(C)c3sc(C(=O)NCc4ccc(OC)cc4)cn3c2=O)cc1`, the figures for the pIC50 in test [1] (Table 1b) and in test [3] (Table 1b) were 4.19 and below 4.00, respectively. Further, in test [2] (MMP13 IC50 (μM), Table 1b), 0.0106 µM corresponded to half-maximal inhibition (IC50).

Take `Cc1c(=O)n(Cc2ccccc2)c(=O)n2cc(C(=O)NCc3ccc(F)c(F)c3)sc12`: the pIC50 in test [1] (Table 1b) was below 4.52; in test [3] (Table 1b) it was below 4.00. The IC50 in test [2] (MMP13 IC50 (μM), Table 1b) was 0.029 µM.

With `CC(=O)c1ccc(C(=O)OCc2ccccc2)cc1C(=O)OCc1ccccc1` [4-Acetyl-isophthalic acid dibenzyl ester], the pIC50 in test [1] (Table II) and in test [3] (Table II) was below 4.00 in each case. The compound further returned an IC50 in test [2] (MMP13 IC50 (nM), Table II) of 8.2 µM.

With `O=C(OCc1ccccc1)C1C[S+]([O-])c2cc(=O)n(Cc3ccccc3)c(=O)n21` (stereo not drawn), the pIC50 in test [1] (Table 1b) is 4.64; in test [3] (Table 1b) it was below 4.00. This compound also registered an IC50 in test [2] (MMP13 IC50 (μM), Table 1b) of 0.072 µM.

For the compound `O=C(NCc1ccccc1)c1cn2c(=O)n(Cc3ccc(Cl)c(Cl)c3)c(=O)cc2s1`, the pIC50 in test [1] (Table 1b) and in test [3] (Table 1b) was below 4.52 throughout. This compound also showed an IC50 in test [2] (MMP13 IC50 (μM), Table 1b) of 0.293 µM.

Take `COc1ccc(CNC(=O)c2ccc(OC)c(C(=O)NCc3ccc(OC)cc3)c2)cc1`: the pIC50 in test [1] (Table II) and in test [3] (Table II) was below 4.00 throughout. This compound also yielded an IC50 in test [2] (MMP13 IC50 (nM), Table II) of 0.28 µM.

As to `Cc1c(=O)n(Cc2ccc(C(=O)N3CCOCC3)cc2)c(=O)n2cc(C(=O)NCc3ccncc3)sc12` [hydrochloride], the pIC50 in test [1] (Table 1b) and in test [3] (Table 1b) was below 4.00 each time. The compound further displayed an IC50 in test [2] (MMP13 IC50 (μM), Table 1b) of 0.037 µM.

In the case of `COc1ccc(CNC(=O)c2cn3c(=O)n(Cc4ccccc4)c(=O)c(C)c3s2)cc1`, the pIC50 was 4.80 in test [1] (Table 1b) and below 4.52 in test [3] (Table 1b). For the same compound, in test [2] (MMP13 IC50 (μM), Table 1b), it took 0.0217 µM to reach half-maximal inhibition (IC50).

For `O=C(OCc1cccc(F)c1)c1cccc(C(=O)OCc2cccc(F)c2)c1` [Isophthalic acid bis-(3-fluoro-benzyl) ester], the pIC50 was below 4.52 in test [1] (Table II) and below 4.00 in test [3] (Table II). The IC50 in test [2] (MMP13 IC50 (nM), Table II) turned out to be 7.83 µM.

On to `COc1ccc(CNC(=O)c2cccc(C(=O)NCc3ccccc3)c2)cc1` [N-Benzyl-N′-(4-methoxy-benzyl)-isophthalamide], for which the pIC50 in test [1] (Table II) and in test [3] (Table II) was below 4.00 in each case. Besides, in test [2] (MMP13 IC50 (nM), Table II), the IC50 worked out at 2.42 µM.

As for `Cc1ccc(CNC(=O)c2cn3c(=O)n(Cc4ccccc4)c(=O)c(C)c3s2)cc1`, the pIC50 is 4.72 in test [1] (Table 1b) and below 4.52 in test [3] (Table 1b). This compound also showed an IC50 in test [2] (MMP13 IC50 (μM), Table 1b) of 0.225 µM.
